± gives the standard deviation of the averaged measurements.
Tests used:
[1] = compound: COc1cc(CCc2cc(NC(=O)c3ccc(N4CC(C)NC(C)C4)cc3)n[nH]2)cc(OC)c1 [AZD4547]; assay: surviving fraction relative to DMSO-only wells; higher = less growth inhibition; details: exposure time: 5 days
Procedure, shortened: (§1)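 Viability was scored with CellTiter-Glo luminescence and normalised to the median of DMSO-only wells as surviving fraction. Beforehand, log-phase tumour cell lines were seeded at 250–500 cells per well in 384-well plates, allowed 24 hours, and exposed continuously for five days to inhibitors at 0.5, 1, 5, 10, 50, 100, 500 and 1000 nM. Only lines whose three screens gave replicate Pearson r >0.7 and median Z' >0.3 were kept.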

[2] = compound: NC1(c2ccc(-c3nc4ccn5c(=O)[nH]nc5c4cc3-c3ccccc3)cc2)CCC1 [MK2206]; assay: as above; details: exposure time: 5 days
Procedure, shortened: as §1

Row | Test System | surviving fraction ([1]; 0.5 nM) | surviving fraction ([1]; 1 nM) | surviving fraction ([1]; 5 nM) | surviving fraction ([1]; 10 nM) | surviving fraction ([1]; 50 nM) | surviving fraction ([1]; 100 nM) | surviving fraction ([1]; 500 nM) | surviving fraction ([1]; 1000 nM) | surviving fraction ([2]; 0.5 nM) | surviving fraction ([2]; 1 nM) | surviving fraction ([2]; 5 nM) | surviving fraction ([2]; 10 nM) | surviving fraction ([2]; 50 nM) | surviving fraction ([2]; 100 nM) | surviving fraction ([2]; 500 nM) | surviving fraction ([2]; 1000 nM)
1 | MDAMB361 BREAST | 0.908 ± 0.033 | 0.925 ± 0.028 | 1.04 ± 0.12 | 0.972 ± 0.064 | 0.967 ± 0.067 | 0.993 ± 0.061 | 0.851 ± 0.035 | 0.76 ± 0.052 | 0.985 ± 0.072 | 0.922 ± 0.076 | 0.826 ± 0.1 | 0.841 ± 0.031 | 0.768 ± 0.11 | 0.608 ± 0.019 | 0.353 ± 0.024 | 0.34 ± 0.026
2 | MDAMB436 BREAST | 1.05 ± 0.053 | 0.9823 ± 0.0041 | 1.03 ± 0.12 | 0.942 ± 0.08 | 0.978 ± 0.059 | 0.958 ± 0.062 | 1.07 ± 0.023 | 1.02 ± 0.024 | 1.02 ± 0.14 | 0.932 ± 0.087 | 0.954 ± 0.023 | 0.957 ± 0.068 | 0.928 ± 0.023 | 0.924 ± 0.11 | 0.828 ± 0.14 | 0.734 ± 0.088
3 | MDAMB453 BREAST | 1.02 ± 0.074 | 1.094 ± 0.01 | 1.106 ± 0.004 | 1.11 ± 0.056 | 1.1 ± 0.019 | 0.825 ± 0.021 | 0.565 ± 0.021 | 0.585 ± 0.025 | 1.1 ± 0.093 | 1.08 ± 0.039 | 1.11 ± 0.041 | 1.15 ± 0.035 | 1.12 ± 0.072 | 0.846 ± 0.013 | 0.327 ± 0.054 | 0.266 ± 0.019
4 | MDAMB468 BREAST | 1.04 ± 0.11 | 1.02 ± 0.055 | 1.13 ± 0.057 | 1.14 ± 0.062 | 1.02 ± 0.09 | 1.16 ± 0.096 | 1.06 ± 0.019 | 1.14 ± 0.042 | 1.07 ± 0.052 | 1.1 ± 0.076 | 1.1 ± 0.067 | 1.09 ± 0.052 | 0.966 ± 0.06 | 0.939 ± 0.073 | 0.666 ± 0.0078 | 0.595 ± 0.014
5 | MFM223 BREAST | 1.02 ± 0.11 | 1.03 ± 0.034 | 0.616 ± 0.056 | 0.374 ± 0.041 | 0.244 ± 0.018 | 0.254 ± 0.015 | 0.298 ± 0.015 | 0.3 ± 0.021 | 1.14 ± 0.047 | 1.12 ± 0.014 | 1.06 ± 0.038 | 1.14 ± 0.16 | 0.793 ± 0.077 | 0.661 ± 0.087 | 0.314 ± 0.053 | 0.224 ± 0.011
6 | MG63 BONE | 0.9447 ± 0.006 | 0.992 ± 0.012 | 0.929 ± 0.033 | 0.879 ± 0.048 | 0.662 ± 0.015 | 0.63 ± 0.041 | 0.576 ± 0.02 | 0.572 ± 0.018 | 0.987 ± 0.01 | 1.06 ± 0.049 | 1.04 ± 0.03 | 1.09 ± 0.047 | 0.95 ± 0.016 | 0.961 ± 0.03 | 0.793 ± 0.019 | 0.748 ± 0.017
7 | MHM BONE | 0.961 ± 0.016 | 1 ± 0.006 | 0.995 ± 0.016 | 0.993 ± 0.021 | 0.776 ± 0.014 | 0.694 ± 0.0087 | 0.587 ± 0.0075 | 0.582 ± 0.011 | 0.981 ± 0.021 | 0.9797 ± 0.0065 | 1.01 ± 0.024 | 1.05 ± 0.027 | 0.963 ± 0.035 | 0.959 ± 0.026 | 0.89 ± 0.04 | 0.8973 ± 0.0085
8 | NCIH441 LUNG | 0.977 ± 0.026 | 1.09 ± 0.035 | 1.06 ± 0.011 | 1.06 ± 0.066 | 1.01 ± 0.038 | 1.02 ± 0.026 | 0.934 ± 0.17 | 0.929 ± 0.093 | 1.08 ± 0.034 | 1.18 ± 0.017 | 1.11 ± 0.034 | 1.08 ± 0.11 | 1.01 ± 0.059 | 1.07 ± 0.041 | 1.04 ± 0.073 | 0.994 ± 0.028
9 | NOS1 BONE | 0.971 ± 0.12 | 1.07 ± 0.13 | 0.913 ± 0.013 | 0.937 ± 0.064 | 0.87 ± 0.093 | 0.824 ± 0.055 | 0.385 ± 0.025 | 0.187 ± 0.036 | 0.882 ± 0.11 | 0.883 ± 0.088 | 1.01 ± 0.1 | 1.04 ± 0.11 | 0.807 ± 0.14 | 0.734 ± 0.011 | 0.503 ± 0.038 | 0.454 ± 0.053
10 | NY BONE | 0.984 ± 0.052 | 1.03 ± 0.039 | 1.03 ± 0.049 | 0.894 ± 0.02 | 0.466 ± 0.0057 | 0.394 ± 0.019 | 0.359 ± 0.023 | 0.315 ± 0.026 | 1.03 ± 0.035 | 1.06 ± 0.024 | 1.05 ± 0.012 | 1.05 ± 0.033 | 0.96 ± 0.047 | 0.954 ± 0.023 | 0.882 ± 0.014 | 0.853 ± 0.017
11 | OS25HAL BONE | 0.99 ± 0.018 | 1.02 ± 0.02 | 1.037 ± 0.0085 | 1.04 ± 0.012 | 1.02 ± 0.016 | 1.036 ± 0.0095 | 0.948 ± 0.04 | 0.992 ± 0.018 | 0.998 ± 0.042 | 1.07 ± 0.028 | 1.07 ± 0.024 | 1.02 ± 0.026 | 0.813 ± 0.066 | 0.631 ± 0.085 | 0.301 ± 0.035 | 0.278 ± 0.021
12 | OSHN BONE | 1.06 ± 0.02 | 1.09 ± 0.044 | 1.09 ± 0.044 | 1.11 ± 0.048 | 1.07 ± 0.023 | 1.1 ± 0.044 | 1.07 ± 0.042 | 1.06 ± 0.011 | 1.08 ± 0.018 | 1.12 ± 0.034 | 1.08 ± 0.021 | 1.12 ± 0.052 | 1.05 ± 0.046 | 1.09 ± 0.038 | 1.04 ± 0.051 | 1.09 ± 0.086
13 | PCI30 HEADNECK | 0.998 ± 0.026 | 0.966 ± 0.082 | 1.09 ± 0.12 | 1.09 ± 0.094 | 1.16 ± 0.061 | 1.17 ± 0.11 | 1.1 ± 0.012 | 0.999 ± 0.07 | 0.999 ± 0.021 | 1.03 ± 0.13 | 1.01 ± 0.027 | 1.07 ± 0.035 | 0.939 ± 0.039 | 0.874 ± 0.045 | 0.592 ± 0.033 | 0.483 ± 0.017
14 | RDES SOFT TISSUE | 1.28 ± 0.16 | 1.29 ± 0.047 | 1.12 ± 0.084 | 1.1 ± 0.12 | 0.835 ± 0.13 | 0.813 ± 0.14 | 0.961 ± 0.16 | 1.04 ± 0.12 | 1.14 ± 0.04 | 1.27 ± 0.13 | 1.22 ± 0.074 | 1.13 ± 0.032 | 1.06 ± 0.062 | 1.17 ± 0.1 | 1.2 ± 0.066 | 1.104 ± 0.0067
15 | S68 BREAST | 0.981 ± 0.08 | 1.04 ± 0.052 | 1.02 ± 0.25 | 1.1 ± 0.18 | 0.957 ± 0.23 | 1.53 ± 0.1 | 1.05 ± 0.035 | 0.684 ± 0.062 | 1.15 ± 0.26 | 0.874 ± 0.16 | 1.15 ± 0.22 | 1.14 ± 0.17 | 0.974 ± 0.22 | 0.619 ± 0.088 | 0.229 ± 0.028 | 0.156 ± 0.044
16 | SAOS2 BONE | 1.046 ± 0.0017 | 1.077 ± 0.0081 | 1.14 ± 0.031 | 1.17 ± 0.085 | 1.16 ± 0.054 | 1.14 ± 0.051 | 0.92467 ± 0.00058 | 0.649 ± 0.023 | 1.08 ± 0.055 | 1.13 ± 0.041 | 1.15 ± 0.021 | 1.14 ± 0.044 | 0.965 ± 0.063 | 0.925 ± 0.041 | 0.676 ± 0.019 | 0.654 ± 0.038
17 | SCC36 HEADNECK | 0.993 ± 0.053 | 1.07 ± 0.081 | 1.18 ± 0.17 | 1.09 ± 0.21 | 0.988 ± 0.07 | 1.01 ± 0.039 | 0.856 ± 0.029 | 0.687 ± 0.053 | 1.07 ± 0.037 | 1.11 ± 0.085 | 1.1 ± 0.084 | 1.18 ± 0.053 | 0.892 ± 0.025 | 0.936 ± 0.034 | 0.504 ± 0.044 | 0.378 ± 0.032
18 | SCC47 HEADNECK | 0.967 ± 0.14 | 1.02 ± 0.066 | 1.02 ± 0.1 | 1.13 ± 0.069 | 1.08 ± 0.037 | 1.09 ± 0.091 | 1.03 ± 0.078 | 0.961 ± 0.074 | 1.03 ± 0.051 | 1.06 ± 0.047 | 1.14 ± 0.065 | 1.16 ± 0.046 | 1.04 ± 0.046 | 1.07 ± 0.052 | 0.935 ± 0.091 | 0.828 ± 0.045
19 | SCC90 HEADNECK | 1.07 ± 0.095 | 1.06 ± 0.11 | 1.04 ± 0.17 | 1.09 ± 0.14 | 1.08 ± 0.038 | 1.15 ± 0.055 | 1.04 ± 0.043 | 1.1 ± 0.11 | 0.954 ± 0.027 | 1.01 ± 0.048 | 0.973 ± 0.073 | 1.12 ± 0.093 | 0.887 ± 0.011 | 0.935 ± 0.082 | 0.704 ± 0.071 | 0.586 ± 0.047
